Read-outs that look alike come from different tables or passages of the source.
Legend:
[1] = molecular target: p70S6K (Homo sapiens, UniProt P23443); experiment: Luciferase-coupled chemiluminescence kinase assay (ATP consumption); format: biochemical
Method in brief: (§1)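 Enzyme at 2.5-5 nM was preincubated 30 min at room temperature with compound in Tris pH 7.5, MgCl2, TX-100, DTT, then reacted with ATP for 3 h at ambient temperature. Remaining ATP was quantified by luciferase-luciferin chemiluminescence, with consumption kept at 25-60%; […].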

[2] = molecular target: AktK (Homo sapiens, UniProt P31749); experiment: as above; format: biochemical; conditions: read-out: AKT-1 IC50
AktK, sequence (P31749 whole entry): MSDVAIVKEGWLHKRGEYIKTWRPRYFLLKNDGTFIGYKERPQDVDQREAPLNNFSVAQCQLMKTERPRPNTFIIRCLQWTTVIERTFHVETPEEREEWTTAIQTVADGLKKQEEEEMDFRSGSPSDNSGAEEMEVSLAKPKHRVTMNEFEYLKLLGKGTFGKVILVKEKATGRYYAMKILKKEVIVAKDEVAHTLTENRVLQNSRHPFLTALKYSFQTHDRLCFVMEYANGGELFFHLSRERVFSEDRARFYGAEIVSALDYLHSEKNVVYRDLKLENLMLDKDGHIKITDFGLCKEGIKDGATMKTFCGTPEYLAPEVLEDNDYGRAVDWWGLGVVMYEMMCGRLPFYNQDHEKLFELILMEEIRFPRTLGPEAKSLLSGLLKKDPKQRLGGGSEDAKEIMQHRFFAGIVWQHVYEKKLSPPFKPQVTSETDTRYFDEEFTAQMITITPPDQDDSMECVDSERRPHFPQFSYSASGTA
Method in brief: as §1

p70S6K, sequence (P23443 whole entry): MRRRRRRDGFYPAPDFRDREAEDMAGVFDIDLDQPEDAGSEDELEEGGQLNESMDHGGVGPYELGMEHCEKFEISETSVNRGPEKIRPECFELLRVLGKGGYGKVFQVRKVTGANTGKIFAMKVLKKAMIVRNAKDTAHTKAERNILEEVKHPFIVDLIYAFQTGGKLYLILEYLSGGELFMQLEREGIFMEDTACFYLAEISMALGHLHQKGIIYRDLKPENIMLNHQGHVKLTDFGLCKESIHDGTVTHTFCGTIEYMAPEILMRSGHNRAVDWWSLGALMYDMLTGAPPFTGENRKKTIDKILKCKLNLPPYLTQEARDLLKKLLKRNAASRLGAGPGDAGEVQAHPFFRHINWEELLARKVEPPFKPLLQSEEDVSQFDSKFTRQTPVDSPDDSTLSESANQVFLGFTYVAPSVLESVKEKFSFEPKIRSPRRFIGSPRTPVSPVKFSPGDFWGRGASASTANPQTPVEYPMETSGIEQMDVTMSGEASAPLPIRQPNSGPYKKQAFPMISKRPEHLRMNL

SMILES | IC50 ([1]; Table 1, class symbols per key) | IC50 ([2]; Table 1, class symbols per key) | IC50 [1] | IC50 [2]
FC(F)(F)c1ccccc1N1CCN(c2ncnc3[nH]nc(Br)c23)CC1 [Entry 151, 3-bromo-4-{4-[2-(trifluoromethyl)phenyl]piperazin-1-yl}-1H-pyrazolo[3,4-d]pyrimidine] | 100 to 1000 nM | ≥ 10000 nM | – | –
CCc1n[nH]c2ncnc(N3CCN(c4cc(Cl)cc(OCCCN5CCCC5)c4C)CC3)c12 [Entry 35, 4-(4-{5-chloro-2-methyl-3-[(3-pyrrolidin-1-ylpropyl)oxy]phenyl}piperazin-1-yl)-3-ethyl-1H-pyrazolo[3,4-d]pyrimidine] | < 100 nM | 100 to 1000 nM | – | –
FC(F)(F)c1ccc(N2CCN(c3ncnc4[nH]nc(Br)c34)CC2)cc1 [Entry 124, 3-bromo-4-{4-[4-(trifluoromethyl)phenyl]piperazin-1-yl}-1H-pyrazolo[3,4-d]pyrimidine] | 100 to 1000 nM | ≥ 10000 nM | – | –
Clc1cccc(N2CCN(c3ncnc4[nH]nc(Br)c34)CC2)c1Cl [Entry 150, 3-bromo-4-[4-(2,3-dichlorophenyl)piperazin-1-yl]-1H-pyrazolo[3,4-d]pyrimidine] | 100 to 1000 nM | ≥ 10000 nM | – | –
CCc1n[nH]c2ncnc(N3CCN(c4cc(Cl)cc(CCCN5CCN(C)CC5)c4C)CC3)c12 [Entry 62, 4-(4-{5-chloro-2-methyl-3-[3-(4-methylpiperazin-1-yl)propyl]phenyl}piperazin-1-yl)-3-ethyl-1H-pyrazolo[3,4-d]pyrimidine] | < 100 nM | 100 to 1000 nM | – | –
Fc1cc(NCCN2CCCC2)c(Cl)c(N2CCN(c3ncnc4[nH]nc(Br)c34)CC2)c1 [Entry 129, 3-[4-(3-bromo-1H-pyrazolo[3,4-d]pyrimidin-4-yl)piperazin-1-yl]-2-chloro-5-fluoro-N-(2-pyrrolidin-1-ylethyl)aniline] | < 100 nM | 100 to 1000 nM | – | –
CCN(CC)CCOc1cc(Cl)cc(N2CCN(c3ncnc4[nH]nc(C(F)(F)F)c34)CC2)c1C [Entry 34, 2-[(5-chloro-2-methyl-3-{4-[3-(trifluoromethyl)-1H-pyrazolo[3,4-d]pyrimidin-4-yl]piperazin-1-yl}phenyl)oxy]-N,N-diethylethanamine] | < 100 nM | 100 to 1000 nM | – | –
CCc1n[nH]c2ncnc(N3CCN(c4cc(Br)cc(N)c4C)CC3)c12 [Entry 165, 5-bromo-3-[4-(3-ethyl-1H-pyrazolo[3,4-d]pyrimidin-4-yl)piperazin-1-yl]-2-methylaniline] | < 100 nM | 100 to 1000 nM | – | –
Cc1ccc(Cl)cc1N1CCN(c2ncnc3[nH]nc(-c4cccc(N)c4)c23)CC1 [Entry 339, 3-{4-[4-(5-chloro-2-methylphenyl)piperazin-1-yl]-1H-pyrazolo[3,4-d]pyrimidin-3-yl}aniline] | – | – | 100 to 1000 nM | 1000 to 10000 nM
Cc1c(NCCN2CCCC2)cc(F)cc1N1CCN(c2ncnc3[nH]nc(C(F)(F)F)c23)CC1 [Entry 79, 5-fluoro-2-methyl-N-(2-pyrrolidin-1-ylethyl)-3-{4-[3-(trifluoromethyl)-1H-pyrazolo[3,4-d]pyrimidin-4-yl]piperazin-1-yl}aniline] | < 100 nM | 100 to 1000 nM | – | –
O=[N+]([O-])c1ccccc1N1CCN(c2ncnc3[nH]nc(Br)c23)CC1 [Entry 121, 3-bromo-4-[4-(2-nitrophenyl)piperazin-1-yl]-1H-pyrazolo[3,4-d]pyrimidine] | 100 to 1000 nM | ≥ 10000 nM | – | –
CCN(CC)CCCOc1nc(Cl)c(C)c(N2CCN(c3ncnc4[nH]nc(Br)c34)CC2)n1 [Entry 173, 3-({4-[4-(3-bromo-1H-pyrazolo[3,4-d]pyrimidin-4-yl)piperazin-1-yl]-6-chloro-5-methylpyrimidin-2-yl}oxy)-N,N-diethylpropan-1-amine] | 100 to 1000 nM | 1000 to 10000 nM | – | –
Cc1c(NCCN2CCCC2)cc(S(C)(=O)=O)cc1N1CCN(c2ncnc3[nH]nc(Br)c23)CC1 [Entry 261, 3-[4-(3-bromo-1H-pyrazolo[3,4-d]pyrimidin-4-yl)piperazin-1-yl]-2-methyl-5-(methylsulfonyl)-N-(2-pyrrolidin-1-ylethyl)aniline] | < 100 nM | 100 to 1000 nM | – | –
Cc1c(NCCN2CCCC2)cc(C(=O)N2CCCC2)cc1N1CCN(c2ncnc3[nH]nc(Br)c23)CC1 [Entry 201, 3-[4-(3-bromo-1H-pyrazolo[3,4-d]pyrimidin-4-yl)piperazin-1-yl]-2-methyl-5-(pyrrolidin-1-ylcarbonyl)-N-(2-pyrrolidin-1-ylethyl)aniline] | < 100 nM | 100 to 1000 nM | – | –
Cc1c(NCCN2CCCC2)cc(OCCC(C)C)cc1N1CCN(c2ncnc3[nH]nc(Br)c23)CC1 [Entry 206, 3-[4-(3-bromo-1H-pyrazolo[3,4-d]pyrimidin-4-yl)piperazin-1-yl]-2-methyl-5-[(3-methylbutyl)oxy]-N-(2-pyrrolidin-1-ylethyl)aniline] | < 100 nM | < 100 nM | – | –
CCc1n[nH]c2ncnc(N3CCN(c4nc(C)cc(C)n4)CC3)c12 [Entry 111, 4-[4-(4,6-dimethylpyrimidin-2-yl)piperazin-1-yl]-3-ethyl-1H-pyrazolo[3,4-d]pyrimidine] | 1000 to 10000 nM | ≥ 10000 nM | – | –
CCC(CC)COc1cc(NCCN2CCCC2)c(C)c(N2CCN(c3ncnc4[nH]nc(Br)c34)CC2)c1 [Entry 207, 3-[4-(3-bromo-1H-pyrazolo[3,4-d]pyrimidin-4-yl)piperazin-1-yl]-5-[(2-ethylbutyl)oxy]-2-methyl-N-(2-pyrrolidin-1-ylethyl)aniline] | < 100 nM | < 100 nM | – | –
Cc1c(OCCCN2CCCC2)cc(Cl)cc1N1CCN(c2ncnc3[nH]nc(Br)c23)CC1 [Entry 84, 3-bromo-4-(4-{5-chloro-2-methyl-3-[(3-pyrrolidin-1-ylpropyl)oxy]phenyl}piperazin-1-yl)-1H-pyrazolo[3,4-d]pyrimidine] | < 100 nM | < 100 nM | – | –
Brc1n[nH]c2ncnc(N3CCN(c4ccccc4)CC3)c12 [Entry 152, 3-bromo-4-(4-phenylpiperazin-1-yl)-1H-pyrazolo[3,4-d]pyrimidine] | < 100 nM | ≥ 10000 nM | – | –

Second part, the compound after the results:

IC50 ([1]; Table 1, class symbols per key) | IC50 ([2]; Table 1, class symbols per key) | IC50 [1] | IC50 [2] | SMILES
< 100 nM | < 100 nM | – | – | Cc1c(NCCN(C)C)cc(OCC(C)C)cc1N1CCN(c2ncnc3[nH]nc(Br)c23)CC1 [Entry 195, N′-{3-[4-(3-bromo-1H-pyrazolo[3,4-d]pyrimidin-4-yl)piperazin-1-yl]-2-methyl-5-[(2-methylpropyl)ox-y]phenyl}-N,N-dimethylethane-1,2-diamine]
– | – | < 100 nM | 1000 to 10000 nM | Cc1ccc(Cl)cc1N1CCN(c2ncnc3[nH]nc(CCCO)c23)CC1 [Entry 371, 3-{4-[4-(5-chloro-2-methylphenyl)piperazin-1-yl]-1H-pyrazolo[3,4-d]pyrimidin-3-yl}propan-1-ol]
< 100 nM | < 100 nM | – | – | Cc1ccc(OCC(F)(CF)CF)cc1N1CCN(c2ncnc3[nH]nc(Br)c23)CC1 [Entry 263, 3-bromo-4-[4-(5-{[2,3-difluoro-2-(fluorometh-yl)propyl]oxy}-2-methylphenyl)piperazin-1-yl]-1H-pyrazolo[3,4-d]pyrimidine]
< 100 nM | 100 to 1000 nM | – | – | Cc1cc(F)c(-c2ccc(F)c(F)c2)cc1N1CCN(c2ncnc3[nH]nc(Br)c23)CC1 [Entry 266, 3-bromo-4-[4-(3′,4′,6-trifluoro-4-methylbiphenyl-3-yl)piperazin-1-yl]-1H-pyrazolo[3,4-d]pyrimidine]
– | – | 100 to 1000 nM | ≥ 10000 nM | CCc1n[nH]c2ncnc(N3CCN(c4cccc(Cl)c4)C(C(=O)O)C3)c12 (centres unmarked) [Entry 352, 1-(3-chlorophenyl)-4-(3-ethyl-1H-pyrazolo[3,4-d]pyrimidin-4-yl)piperazine-2-carboxylic acid]
– | – | < 100 nM | 1000 to 10000 nM | CCc1n[nH]c2ncnc(N3CC4CC3CN4c3cccc(Cl)c3)c12 (centres unmarked) [Entry 344, 4-[5-(3-chlorophenyl)-2,5-diazabicyclo[2.2.1]hept-2-yl]-3-ethyl-1H-pyrazolo[3,4-d]pyrimidine]
< 100 nM | < 100 nM | – | – | Cc1c(CCC[n+]2ccccc2)cc(-c2ccccc2)cc1N1CCN(c2ncnc3[nH]nc(Br)c23)CC1 [Entry 232, 1-(3-{5-[4-(3-bromo-1H-pyrazolo[3,4-d]pyrimidin-4-yl)piperazin-1-yl]-4-methylbiphenyl-3-yl}propyl)pyridinium]
– | – | < 100 nM | 1000 to 10000 nM | CCc1n[nH]c2ncnc(N3CCN(c4cc(Cl)cc(C(=O)OCCN(C)C)c4OC)CC3)c12 [Entry 376, 2-(dimethylamino)ethyl 5-chloro-3-[4-(3-ethyl-1H-pyrazolo[3,4-d]pyrimidin-4-yl)piperazin-1-yl]-2-(methyloxy)benzoate]
– | – | 100 to 1000 nM | ≥ 10000 nM | Clc1ccccc1N1CCN(c2ncnc3[nH]ccc23)CC1 [Entry 311, 4-[4-(2-chlorophenyl)piperazin-1-yl]-7H-pyrrolo[2,3-d]pyrimidine]
< 100 nM | 1000 to 10000 nM | – | – | Cc1ccc(C(=O)NCCN(C)C)cc1N1CCN(c2ncnc3[nH]nc(Br)c23)CC1 [Entry 213, 3-[4-(3-bromo-1H-pyrazolo[3,4-d]pyrimidin-4-yl)piperazin-1-yl]-N-[2-(dimethylamino)ethyl]-4-methylbenzamide]
– | – | 100 to 1000 nM | 1000 to 10000 nM | COc1ccc(-c2n[nH]c3ncnc(N4CCN(c5cc(Cl)ccc5C)CC4)c23)cc1 [Entry 356, 4-[4-(5-chloro-2-methylphenyl)piperazin-1-yl]-3-[4-(methyloxy)phenyl]-1H-pyrazolo[3,4-d]pyrimidine]
< 100 nM | 100 to 1000 nM | – | – | Cc1c(NCCN2CCCC2)cc(C(=O)N(C)C(C)C)cc1N1CCN(c2ncnc3[nH]nc(Br)c23)CC1 [Entry 210, 3-[4-(3-bromo-1H-pyrazolo[3,4-d]pyrimidin-4-yl)piperazin-1-yl]-N,4-dimethyl-N-(1-methylethyl)-5-[(2-pyrrolidin-1-ylethyl)amino]benzamide]

Reference: patent publication US8076338B2, “Kinase modulators and methods of use” (Exelixis, Inc., priority 2004, dated 2011)
